The values that follow come from ChEMBL document CHEMBL1268866, “Factor Xa inhibitors: next-generation antithrombotic agents” (J Med Chem, 2010).

Data set [1] can be described thus: Oral bioavailability in rat. The format is ADME, organism-based. The note with it: in vivo.
Data set [2] can be described thus: in vivo. The note with it: dog, po.
A short description of data set [3]: Half life in rat. The note with it: in vivo. The format is ADME, organism-based.
Data set [4] can be described thus: in vivo. The note with it: dog.
The nature of data set [5]: Oral bioavailability in monkey. The note with it: in vivo.
Data set [6] in a line: in vivo. The note with it: dog. The source holds these as a separate data set.
Data set [7] is described as follows: in vivo. The note with it: dog. This is another data set of the same source.
Data set [8] is described as follows: Drug excretion in rat feces. It counts as ADME, tissue-based. The note with it: faeces, read-out: Activity.
Data set [9] in a line: Volume of distribution at steady state in rat. The note with it: in vivo, read-out: Vdss. It counts as ADME, organism-based.
Data set [10] can be described thus: Drug excretion in rat urine. It counts as ADME. The note with it: read-out: Activity.
The nature of data set [11]: Tmax in po dosed human. The note with it: in vivo. It counts as ADME, organism-based.
A short description of data set [12]: Drug excretion in dog urine. It counts as ADME, Canis lupus familiaris. The note with it: read-out: Activity.
A short description of data set [13]: Drug excretion in dog feces. It counts as ADME, tissue-based, Canis lupus familiaris. The note with it: faeces, read-out: Activity.
The nature of data set [14]: Half life in human. The format is ADME, organism-based. The note with it: in vivo.
A short description of data set [15]: Clearance in human. The format is ADME, organism-based. The note with it: in vivo.
Data set [16] is described as follows: Volume of distribution at steady state in monkey. The format is ADME, organism-based, Macaca mulatta. The note with it: rhesus monkey, in vivo; read-out: Vdss.
Data set [17] in a line: Half life in monkey. The note with it: rhesus monkey, in vivo. The format is ADME, organism-based, Macaca mulatta.
Data set [18] can be described thus: Clearance in monkey. It counts as ADME, organism-based, Macaca mulatta. The note with it: rhesus monkey, in vivo.
Data set [19] can be described thus: (§1) Clearance in rat. It counts as ADME, organism-based. The note with it: in vivo.
Data set [20] is described as follows: Drug excretion in human urine. It counts as ADME, tissue-based. The note with it: read-out: Activity.
Data set [21] can be described thus: Volume of distribution in chimpanzee. It counts as ADME, organism-based, Pan troglodytes. The note with it: in vivo.
The nature of data set [22]: Drug excretion in human feces. The note with it: faeces, read-out: Activity. It counts as ADME, tissue-based.
The species named for data set [23] is Rattus norvegicus. The description is as §1. It counts as ADME, organism-based. The note with it: in vivo.
Data set [24] in a line: Half life in po dosed human. It counts as ADME, organism-based. The note with it: in vivo.
Data set [25] in a line: Oral bioavailability in chimpanzee. It counts as ADME, organism-based, Pan troglodytes. The note with it: in vivo.
The species entered for data set [26] is Canis familiaris. The data set can be described thus: Plasma concentration in dog. The format is ADME, organism-based, Canis lupus familiaris. The note with it: in vivo.

As for `CS(=O)(=O)c1ccccc1-c1ccc(NC(=O)[C@H]2C[C@@H](O)CN2C(=O)Nc2ccc(Cl)cc2)c(F)c1`, the bioavailability in data set [1] stood at 17%.

Consider `NCc1ccccc1-n1nc(C(F)(F)F)cc1C(=O)Nc1ccc(-c2ccccc2S(N)(=O)=O)cc1F`, for which the bioavailability in [2] turned out to be 100%.

Take `CN1CCC(N2CCN(C(=O)[C@H](NC(=O)c3ccc4cc[nH]c4c3)c3ccccc3)CC2)CC1` [LY-517717]: the bioavailability in data set [2] and in [1] was 25% each time. Besides, the half-life in [3] and in [4] was 7 h in each case.

`Cc1ncc2n1C(=O)N(C1CCN(C(=O)CCS(=O)(=O)c3ccc4cc(Cl)ccc4c3)CC1)C2`: the bioavailability in [5] stood at 46%.

As to `O=C(Nc1ccc(-n2ccccc2=O)cn1)[C@H]1C[C@](O)(c2ccc(F)cc2F)CN1C(=O)Nc1ccc(Cl)cc1`, the half-life in [4] is 12.6 h.

Take `CS(=O)(=O)c1cc(F)ccc1N1CCN(C(=O)[C@H](NC(=O)c2ccc3ccnc(N)c3c2)c2ccccc2)CC1`: in [1], the bioavailability is 27%.

As for `CN(C)Cc1nccn1-c1ccc(NC(=O)c2cc(C(F)(F)F)nn2-c2ccc3onc(N)c3c2)cc1`, in [6], the Vd came out at 4.5 L/kg. Besides, the bioavailability in data set [2] came out at 16%. The molecule also had a clearance in [7] of 41.7 mL/min/kg. The molecule also showed a half-life in data set [4] of 1.6 h.

On to `O=C(NC[C@H]1CN(c2ccc(N3CCOCC3=O)cc2)C(=O)O1)c1ccc(Cl)s1` [RIVAROXABAN], for which the dose excreted came out at 67% in [8], 25% in data set [10], 52% in [12] and 43% in data set [13]. Besides, the Vd in data set [6] was 0.4 L/kg; in data set [9], 0.3 L/kg. The bioavailability in data set [2] came to 60%; in [1], 57%. Besides, in data set [7], the clearance is 5 mL/min/kg. The Tmax in data set [11] is 1.3 h. Also, the half-life in [3] was 1.2 h; in data set [4] it was 0.9 h.

Molecule `CC(=N)N1CC[C@H](Oc2ccc([C@H](Cc3ccc4ccc(C(=N)N)cc4c3)C(=O)O)cc2)C1` [DX-9065A] yielded a half-life in data set [14] of over 20 h. This molecule also gave a clearance in data set [15] of 120 mL/min.

For the molecule `CN1CCc2nc(C(=O)N[C@@H]3C[C@@H](C(=O)N(C)C)CC[C@@H]3NC(=O)c3cc4cc(Cl)ccc4[nH]3)sc2C1`, the Vd in [16] is 1.49 L/kg. Besides, the half-life in [17] is 1.5 h. For the same molecule, the clearance in data set [18] was determined as 12.4 mL/min/kg.

`CN(C)Cc1ccccc1-c1ccc(C(=O)Nc2ccc(Cl)cc2C(=O)Nc2ccc(Cl)cn2)cc1` registered a bioavailability in [1] of 100%.

`COC[C@@H](NC(=O)c1ccc(Cl)s1)C(=O)Nc1ccc(N2CCOCC2=O)c(C)c1`: the bioavailability in data set [5] is 80%; in data set [2] it was 60%; in data set [1], 60%. In data set [18], the clearance is 4.17 mL/min/kg.

For the molecule `CN(C)Cc1nccn1-c1ccc(N2CC[C@H](NS(=O)(=O)/C=C/c3ccc(Cl)s3)C2=O)c(F)c1`, the Vd in data set [9] amounted to 0.6 L/kg. This molecule also had a half-life in data set [3] of 1 h. In addition, in [19], the clearance is 13 mL/min/kg. The same molecule displayed a bioavailability in [1] of 52%.

For `O=C1CN(S(=O)(=O)/C=C/c2ccc(Cl)s2)CCN1Cc1cc2c[nH]ccc-2n1`, the bioavailability in data set [2] was 97%. The half-life in data set [4] was found to be 0.867 h.

For the molecule `CN(C)Cc1ccc(C(=O)Nc2ccc(Cl)cc2C(=O)Nc2ccc(Cl)cn2)cc1`, the Vd in [9] was determined as 33 L/kg. Moreover, in data set [1], the bioavailability was 100%.

`O=C([C@H](O)CS(=O)(=O)c1ccc2cc(Cl)ccc2c1)N1CCC(N2CCCNC2=O)CC1` [LETAXABAN]: in data set [16], the Vd came to 0.579 L/kg. The molecule further displayed a bioavailability in data set [5] of 52.5%. In [18], the clearance is 11.8 mL/min/kg.

`COc1ccc(-n2nc(C(N)=O)c3c2C(=O)N(c2ccc(N4CCCCC4=O)cc2)CC3)cc1` [APIXABAN]: the values for the dose excreted in data set [20] and in data set [22] were 25% and 47%, respectively. Also, the Vd is 0.2 L/kg in data set [6], 0.31 L/kg in data set [9] and 0.17 L/kg in data set [21]. Also, the bioavailability was over 50% in data set [2] and 51% in [25]. Moreover, the clearance in data set [7] is 0.333 mL/min/kg; in data set [23], 4.33 mL/min/kg. In data set [24], this molecule showed a half-life of 8 h.

`CCCCOC(=O)COc1cc(-c2ccccc2S(C)(=O)=O)ccc1CCNS(=O)(=O)c1cc(C(=N)NO)ccc1O`: the bioavailability in data set [1] was 15%.

`Nc1nccc2ccc(CN3CC[C@H](NS(=O)(=O)c4cc5ncccc5s4)C3=O)cc12` returned a concentration in data set [26] of 2700 nM. This molecule also yielded a bioavailability in [2] of 33%.

For `CO[C@@H]1C[C@H](C(=O)Nc2ccc(-n3ccccc3=O)cc2F)N(C(=O)Nc2ccc(Cl)cc2)C1` [ERIBAXABAN], the Vd in data set [6] turned out to be 0.87 L/kg. In addition, the bioavailability in data set [2] is 41%; in [1], 82%. The molecule further showed a clearance in data set [7] of 2.5 mL/min/kg.

As for `O=C1CN(S(=O)(=O)c2cc3ccc(Cl)cc3s2)CCN1Cc1cc2c[nH]ccc-2n1`, in data set [2], the bioavailability came to 46%. The molecule further had a half-life in data set [4] of 0.6 h.

`Cc1cc(C(=O)Nc2ccc(-n3ccnc3CN(C)C)cc2F)n(-c2ccc3cc(Cl)ccc3c2)n1` had a half-life in data set [3] of 7.2 h. The bioavailability in [1] worked out at 35%.

For `CN(C)C(=N)c1ccc(NC(=O)c2cc(C(F)(F)F)nn2-c2cc3ccccc3cc2F)c(F)c1`, the bioavailability in data set [1] is 47%.

`CN1CCc2nc(C(=O)N[C@@H]3C[C@@H](C(=O)N(C)C)CC[C@@H]3NC(=O)C(=O)Nc3ccc(Cl)cn3)sc2C1` [EDOXABAN] displayed a bioavailability in data set [5] of 50%.

`Cc1cc2cc(N=C(NC#N)N[C@H]3CCCCN(CC(=O)N4CCCC4)C3=O)ccc2o1` yielded a bioavailability in data set [1] of 50%.

`CO[C@@H]1C[C@H](C(=O)Nc2ccc(-c3ccccc3S(C)(=O)=O)cc2F)N(C(=O)Nc2ccc(Cl)cc2)C1`: the bioavailability in data set [1] worked out at 28%.

The molecule `CC(=N)N1CCC(Oc2ccc(N(Cc3ccc4ccc(C(=N)N)cc4c3)S(=O)(=O)CC(=O)O)cc2)CC1` [YM-60828] had a bioavailability in data set [5] of 20%.
